Experiment [1] deals with T1, D(2) dopamine receptor (Rattus norvegicus, UniProt P61169). The experiment can be described thus: In vitro agonist binding affinity was determined by displacing the [3H]N-propylnorapomorphine ([3H]NPA) in rat striatal Dopamine receptor D2.
The target in experiment [2] is T1, D(2) dopamine receptor. Description: Displacement of [3H]spiperone from rat striatal Dopamine receptor D2. Background: In a radioligand displacement assay an active substance lowers the binding of a labelled ligand.
The target in experiment [3] is D(1A) dopamine receptor (Rattus norvegicus, UniProt P18901). The experiment can be described thus: In vitro antagonist binding affinity was determined by displacing the [3H]-SCH- in rat striatal Dopamine receptor D1.
Sequence of D(1A) dopamine receptor (P18901 whole entry): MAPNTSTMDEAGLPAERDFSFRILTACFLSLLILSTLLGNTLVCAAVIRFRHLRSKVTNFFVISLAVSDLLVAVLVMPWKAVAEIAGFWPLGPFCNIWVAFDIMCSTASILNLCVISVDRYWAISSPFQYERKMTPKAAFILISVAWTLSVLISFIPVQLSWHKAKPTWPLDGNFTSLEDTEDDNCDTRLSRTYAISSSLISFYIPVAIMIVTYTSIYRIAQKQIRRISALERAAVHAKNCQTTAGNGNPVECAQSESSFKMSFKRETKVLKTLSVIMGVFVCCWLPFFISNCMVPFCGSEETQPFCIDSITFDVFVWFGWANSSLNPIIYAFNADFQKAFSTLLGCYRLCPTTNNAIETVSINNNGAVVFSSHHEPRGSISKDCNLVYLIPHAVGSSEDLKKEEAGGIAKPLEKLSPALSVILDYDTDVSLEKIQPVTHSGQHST
The subject of experiment [4] is Rattus norvegicus. The experiment can be described thus: Tested for % rats with stereotypy at the dose of 67 mg/Kg administered perorally. The format is functional.
The test system of experiment [5] is Rattus norvegicus. Description: Percent reversal of the increase inDOPA levels in the striatum of GBL-treated rats at 10 mg/kg administered intraperitoneally. The format is functional. The note with it: route intraperitoneal; for Reversal % at 10 mg/kg: ip.
In experiment [6] the test system is Rattus norvegicus. The experiment can be described thus: Tested for inhibition of dopamine neuronal firing in rat at the dose of 2.5 mg/Kg by intraperitoneal administration. Format: functional. The settings on record: ip.
The subject of experiment [7] is Rattus norvegicus. The experiment can be described thus: Tested for locomotor activity in rat by peroral administration. The format is functional. The settings on record: po.
Experiment [8] has as its system Mus musculus. The experiment can be described thus: Tested for locomotor activity (LMA) in mouse by intraperitoneal administration. The format is functional. The settings on record: ip.
Experiment [9] deals with Rattus norvegicus. Description: Tested for locomotor activity (LMA) in rat by peroral administration. Format: functional. The note with it: po.
The subject of experiment [10] is Rattus norvegicus. Description: Tested for % rats with stereotypy at the dose of 61 mg/Kg administered perorally. Format: functional.
For experiment [11], the system named is Rattus norvegicus. The experiment can be described thus: Tested for locomotor activity in Rat by peroral administration. The settings on record: po. Format: functional.
The subject of experiment [12] is Rattus norvegicus. Description: Tested for % rats with stereotypy at the dose of 20 mg/Kg administered perorally. Format: functional.
For experiment [13], the system named is Rattus norvegicus. The experiment can be described thus: Percent reversal of the increase inDOPA levels in the striatum of GBL-treated rats when administered intraperitoneally was determined. The format is functional. The note with it: ip.
Experiment [14] deals with Mus musculus. The experiment can be described thus: Tested for locomotor activity (LMA) in mouse by intraperitoneal administration for the dose >30 mg/kg. Format: functional. The settings on record: ip.
Experiment [15] relates to Rattus norvegicus. Description: Tested for locomotor activity (LMA) in rat by peroral administration for the dose for the dose of >10 mg/kg. The format is functional. The settings on record: po.
For experiment [16], the system named is Rattus norvegicus. The experiment can be described thus: Tested for % rats with stereotypy at the dose of 116 mg/Kg administered perorally. The format is functional.
For experiment [17], the system named is Rattus norvegicus. Description: Tested for inhibition of Dopamine neuronal firing in rat at the dose of 2.5 mg/Kg by intraperitoneal administration. Format: functional. The settings on record: ip.
Experiment [18] deals with Rattus norvegicus. Description: Tested for % rats with stereotypy at the dose of 0.3 mg/Kg subcutaneous administration. Format: functional.
For experiment [19], the system named is Rattus norvegicus. Description: Tested for locomotor activity in rat by subcutaneous administration. The note with it: sc.
Experiment [20] deals with Rattus norvegicus. The experiment can be described thus: Tested for inhibition of dopamine neuronal firing in rat at the dose of 0.25 mg/Kg by intraperitoneal administration. The format is functional. The note with it: ip.

Where only a bound is given, the exact number is not on record here.

T1 sequence (P61169 whole entry): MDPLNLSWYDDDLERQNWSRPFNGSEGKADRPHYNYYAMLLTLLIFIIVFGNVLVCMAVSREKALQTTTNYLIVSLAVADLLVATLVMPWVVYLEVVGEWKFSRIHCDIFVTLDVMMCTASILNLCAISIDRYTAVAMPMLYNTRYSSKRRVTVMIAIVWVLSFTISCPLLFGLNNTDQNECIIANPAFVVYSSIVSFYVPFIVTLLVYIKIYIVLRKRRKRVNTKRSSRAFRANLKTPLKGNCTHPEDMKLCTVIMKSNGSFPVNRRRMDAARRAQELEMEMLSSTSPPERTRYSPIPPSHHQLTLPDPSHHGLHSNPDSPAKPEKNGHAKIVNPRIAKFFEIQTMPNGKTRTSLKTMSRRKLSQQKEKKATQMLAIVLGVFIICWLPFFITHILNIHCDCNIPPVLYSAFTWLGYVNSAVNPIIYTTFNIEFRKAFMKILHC

The IC50 is the point on the concentration scale where inhibition reaches its midpoint. A higher IC50 goes with lower potency. For orientation: inhibition in vivo means the percentage by which the read-out fell short of the control. The low end stands for little suppression, the high end for strong suppression. For orientation: ED50 means the dose at which the effect has come halfway, by size or by number of responders. On to `C1=C(c2ccccc2)CCC(CCN2CCN(c3ccccn3)CC2)C1` (racemic), for which the concentration for half-maximal inhibition (IC50) in experiment [1] was 88 nM; in experiment [2] it was 412 nM; in experiment [3], above 6000 nM. Besides, the Activity in [4] is given as 0%. Further, in [5], the Reversal % at 10 mg/kg amounted to 50%. This molecule also registered an inhibition in vivo at 2.5 mg/kg in experiment [6] of 41%. Also, in [7], it took a dose of 6.7 mg/kg to reach the 50% effect level (ED50).
`C1=C(c2cccs2)CCC(N2CCN(c3ccccn3)CC2)C1` (stereo not drawn) registered an IC50 in experiment [2] of 352 nM. Also, the 50% effective dose (ED50) in experiment [8] was 9.3 mg/kg; in [9], above 30 mg/kg.
`C1=C(c2ccccc2)CC[C@H](CCN2CCN(c3ccccn3)CC2)C1`: the figures for the IC50 in experiment [1], in experiment [2] and in [3] were 82 nM, 704 nM and above 6000 nM, respectively. In [10], this molecule displayed an Activity of 0%. Also, in experiment [5], the Reversal % at 10 mg/kg amounted to 49%. For the same molecule, the ED50 in [11] was 6.1 mg/kg. This molecule also gave an inhibition in vivo at 2.5 mg/kg in experiment [6] of 38%.
Regarding `CN1CCC=C2c3nc(N)sc3CCC21` (racemic), the IC50 is 202 nM in [1], 2920 nM in [2] and above 10000 nM in experiment [3]. Besides, in [12], the Activity is reported as 0%. The ED50 in experiment [13] came to 0.7 mg/kg; in experiment [7], 0.8 mg/kg. This molecule showed an inhibition in vivo at 2.5 mg/kg in experiment [6] of 99%.
`C1=C(c2cccs2)CCC(CCN2CCN(c3ccccn3)CC2)C1` (stereo not drawn) gave an IC50 in experiment [2] of 436 nM. Moreover, the median effective dose (ED50) was 8.4 mg/kg in experiment [8] and 13 mg/kg in experiment [9]. Further, the Reversal in [5] was 46%.
In experiment [2], `C1=C(c2ccccn2)CCC(CCN2CCN(c3ccccn3)CC2)C1` (stereo not drawn) displayed an IC50 of 128 nM. Besides, the ED50 in experiment [14] is 0.4 mg/kg; in experiment [15] it was around 3 mg/kg. Besides, the Reversal in experiment [5] is 89%.
`C1=C(c2ccccn2)CCC(N2CCN(c3ccccn3)CC2)C1` (stereo not drawn): the IC50 in [2] is 1180 nM. In addition, the figures for the ED50 in [8] and in experiment [9] were 0.9 mg/kg and 5.8 mg/kg, respectively. Further, in experiment [5], the Reversal is given as 75%.
As for `C1=C(c2ccccc2)CCC(CCN2CCN(c3ccccn3)CC2)C1` (stereo not drawn), the ED50 in experiment [8] amounted to 2.1 mg/kg; in [9] it was 6.7 mg/kg. In [5], the Reversal is recorded as 50%.
For the molecule `C1=C(c2ccccc2)CCC(CN2CCN(c3ccccn3)CC2)C1` (stereo not drawn), the IC50 in experiment [2] is around 10000 nM. The molecule further showed an ED50 in experiment [8] of around 30 mg/kg.
In the case of `C1=C(c2ccccc2)CCC(N2CCN(c3ccccn3)CC2)C1` (stereo not drawn), the IC50 in experiment [2] was found to be 600 nM. In addition, the results for the ED50 in [8] and in [9] were 1 mg/kg and above 30 mg/kg, respectively.
Turning to `C1=C(c2ccccc2)CC[C@@H](CCN2CCN(c3ccccn3)CC2)C1`, the IC50 in [1] is 64 nM; in experiment [2], 545 nM; in experiment [3], above 6000 nM. Moreover, the Activity in experiment [16] was found to be 60%. The Reversal % at 10 mg/kg in experiment [5] is 57%. Besides, in experiment [17], the inhibition in vivo at 2.5 mg/kg stood at 58%. For the same molecule, the ED50 in experiment [7] worked out at 9.1 mg/kg.
For `C1=C(c2cccs2)CCC(CN2CCN(c3ccccn3)CC2)C1` (stereo not drawn), the IC50 in [2] was 2430 nM. Further, the 50% effective dose (ED50) in experiment [8] was above 30 mg/kg.
Take `CN1CCc2cccc3c2[C@H]1Cc1ccc(O)c(O)c1-3` [APOMORPHINE]: the Activity in experiment [18] is on record as 100%. In addition, the ED50 was 0.3 mg/kg in experiment [13], 0.03 mg/kg in experiment [19] and above 30 mg/kg in experiment [7]. Further, testing at 0.25 mg/kg in experiment [20] gave an inhibition in vivo of 100%.

The values are drawn from ChEMBL document CHEMBL1151026, “Synthesis and pharmacological evaluation of the enantiomers of the dopamine autoreceptor agonist PD 135385” (Bioorg Med Chem Lett, 1993).
